From ChEMBL document CHEMBL1147695, “Synthesis and in vitro evaluation of N-substituted aza-trozamicol analogs as vesicular acetylcholine transporter ligands” (Bioorg Med Chem Lett, 2006)

What follows are molecules tested against T1, Vesicular acetylcholine transporter (Homo sapiens, UniProt Q16572) (assay: Displacement of [3H]vesamicol from human VAChT transfected in PC12 cell line).
T1 sequence (Q16572 whole entry): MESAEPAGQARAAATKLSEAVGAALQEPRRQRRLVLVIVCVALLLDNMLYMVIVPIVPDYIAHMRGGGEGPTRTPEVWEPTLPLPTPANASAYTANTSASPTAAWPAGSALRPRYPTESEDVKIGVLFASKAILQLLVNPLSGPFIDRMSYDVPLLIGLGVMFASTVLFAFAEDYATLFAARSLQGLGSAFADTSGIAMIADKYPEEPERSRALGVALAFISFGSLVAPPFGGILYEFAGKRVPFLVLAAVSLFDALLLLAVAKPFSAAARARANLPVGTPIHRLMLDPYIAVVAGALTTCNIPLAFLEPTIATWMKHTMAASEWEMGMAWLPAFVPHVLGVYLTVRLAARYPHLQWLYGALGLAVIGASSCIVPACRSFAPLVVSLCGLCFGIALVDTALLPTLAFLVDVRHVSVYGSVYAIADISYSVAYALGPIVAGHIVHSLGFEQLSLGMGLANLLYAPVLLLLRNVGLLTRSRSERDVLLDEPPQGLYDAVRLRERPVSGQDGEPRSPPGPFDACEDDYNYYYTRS
Type: cell-based, PC-12
In the case of `C/C=C/CN1CCC(O)C(N2CCN(c3ccccc3)CC2)C1` (configuration not stated), the IC50 is reported as over 100 nM.
Work on `C#CCN1CCC(O)C(N2CCN(c3ccccc3)CC2)C1` (configuration not stated) yielded an IC50 of over 100 nM.
`C=CCN1CCC(N2CCN(c3ccccc3)CC2)C(O)C1` (configuration not stated) gave an IC50 of over 100 nM.
With `C=C(C)CN1CCC(N2CCN(c3ccccc3)CC2)C(O)C1` (configuration not stated) the IC50 was over 100 nM.
`C=CCN1CCC(O)C(N2CCN(c3ccccc3)CC2)C1` (configuration not stated) was tested, and the IC50 was over 100 nM.
For `OC1CCN(Cc2ccccc2Br)CC1N1CCN(c2ccccc2)CC1` (configuration not stated), the IC50 was 47 nM.
In the case of `OC1CCN(C/C=C/I)CC1N1CCN(c2ccccc2)CC1` (configuration not stated), the IC50 is reported as over 100 nM.
Work on `CCN1CCC(O)C(N2CCN(c3ccccc3)CC2)C1` (configuration not stated) yielded an IC50 of over 1000 nM.
Molecule `OC1CN(Cc2ccccc2Br)CCC1N1CCN(c2ccccc2)CC1` (configuration not stated) has an IC50 of 11 nM.
`OC1CCN(Cc2cccc(Br)c2)CC1N1CCN(c2ccccc2)CC1` (configuration not stated) showed an IC50 of 46 nM.
Molecule `OC1CN(Cc2cccc(Br)c2)CCC1N1CCN(c2ccccc2)CC1` (configuration not stated) has an IC50 of 66 nM.
With `C#CCN1CCC(N2CCN(c3ccccc3)CC2)C(O)C1` (configuration not stated) the IC50 was over 1000 nM.
`OC1CN(C/C=C/I)CCC1N1CCN(c2ccccc2)CC1` (configuration not stated) showed an IC50 of over 100 nM.
`C/C=C/CN1CCC(N2CCN(c3ccccc3)CC2)C(O)C1` (configuration not stated) was tested, and the IC50 was 100 nM.
In the case of `OC1CCN(Cc2ccc(Br)cc2)CC1N1CCN(c2ccccc2)CC1` (configuration not stated), the IC50 is reported as over 100 nM.
In the case of `OC1CN(Cc2ccccc2)CCC1N1CCN(c2ccccc2)CC1` (configuration not stated), the IC50 is reported as 57 nM.
Work on `OC1CCNCC1N1CCN(c2ccccc2)CC1` (configuration not stated) yielded an IC50 of over 100 nM.
In the case of `OC1CCN(Cc2ccccc2)CC1N1CCN(c2ccccc2)CC1` (configuration not stated), the IC50 is reported as over 100 nM.
For `OC1CNCCC1N1CCN(c2ccccc2)CC1` (configuration not stated), the IC50 was 100 nM.
In the case of `OC1CN(Cc2ccc(Br)cc2)CCC1N1CCN(c2ccccc2)CC1` (configuration not stated), the IC50 is reported as over 100 nM.
Work on `CCN1CCC(N2CCN(c3ccccc3)CC2)C(O)C1` (configuration not stated) yielded an IC50 of over 1000 nM.
Work on `C=C(C)CN1CCC(O)C(N2CCN(c3ccccc3)CC2)C1` (configuration not stated) yielded an IC50 of over 100 nM.
